Measured values published in patent US7868005B2, “Pyrazinyl substituted piperazine-piperidines with CXCR3 antagonist activity” (Schering Corporation, priority 2005, dated 2011).
pIC50: −log10 of the molar value.

Target: T1, human CXCR3 (N-delta 4) (Homo sapiens, UniProt P49682)
T1 construct: CD8 leader (N); Flag; expressed in transfected cells; membranes prepared
T1 sequence (P49682 5-368 limits assumed): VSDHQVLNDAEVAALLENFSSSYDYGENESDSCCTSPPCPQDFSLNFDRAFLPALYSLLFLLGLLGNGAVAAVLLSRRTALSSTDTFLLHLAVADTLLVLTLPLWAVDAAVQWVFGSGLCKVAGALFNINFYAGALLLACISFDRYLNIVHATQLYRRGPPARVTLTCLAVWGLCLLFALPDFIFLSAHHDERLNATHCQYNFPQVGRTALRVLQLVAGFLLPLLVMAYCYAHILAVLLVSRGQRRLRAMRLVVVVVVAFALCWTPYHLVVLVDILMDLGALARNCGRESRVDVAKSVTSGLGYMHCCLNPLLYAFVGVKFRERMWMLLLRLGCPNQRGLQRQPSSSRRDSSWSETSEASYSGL
Assay: Human CXCR3 (N-delta 4) Scintillation Proximity Assay (SPA), [125I] IP-10 binding to Ba/F3-hCXCR3 membranes
Details: IC50 rating, Table 1; read-out: IC50
From the text: The inventive compounds can readily be evaluated to determine activity at the CXCR3 receptors by known methods, such as, for example, development of a human CXCR3 (N-delta 4) Binding Assay.
Cloning and Expression of Human CXCR3 (N-delta 4):
The DNA encoding human CXCR3 was cloned by PCR using human genomic DNA (Promega, Madison, Wis.) as a template. The PCR primers were designed based on the published sequence of human orphan receptor GPR9 (1) with incorporated restriction sites, a Kozak consensus sequence, CD8 leader and Flag tag. The PCR product was subcloned into the mammalian expression vector pME18Sneo, a derivative of the SR-alpha expression vector (designated as pME18Sneo-hCXCR3 (N-delta 4).
IL-3-dependent mouse pro-B cells Ba/F3 were transfected by electroporation in 0.4 ml Dulbecco's PBS containing 4×10^6 cells with 20 μg of pME18Sneo-hCXCR3 (N-delta 4) plasmid DNA. Cells were pulsed at 400 Volts, 100 OHMs, 960 μFd. The transfected cells were under selection with 1 mg/ml G418 (Life Technologies, Gaithersburg, Md.). G418-resistant Ba/F3 clones were screened for CXCR3 expression by specific binding of [^125I] IP-10 (NEN Life Science Products, Boston, Mass.).
Preparation of Ba/F3-hCXCR3 (N-delta 4) Membranes:
Ba/F3 cells expressing human CXCR3 (N-delta 4) were pelleted and resuspended in the lysis buffer containing 10 mM HEPES, pH 7.5 and Complete® protease inhibitors (1 tablet per 100 ml) (Boehringer Mannheim, Indianapolis, Ind.) at a cell density of 20×10^6 cells per ml. After 5 minute incubation on ice, cells were transferred to 4639 cell disruption bomb (Parr Instrument, Moline, Ill.) and applied with 1,500 psi of nitrogen for 30 minutes on ice. Large cellular debris was removed by centrifugation at 1,000×g. Cell membrane in the supernatant was sedimented at 100,000×g. The membrane was resuspended in the lysis buffer supplemented with 10% sucrose and stored at −80° C. Total protein concentration of the membrane was determined by BCA method from Pierce (Rockford, Ill.).
Human CXCR3 (N-delta 4) Scintillation Proximity Assay (SPA):
For each assay point, 2 μg of membrane was preincubated for 1 hr with 300 μg wheat germ agglutinin (WGA) coated SPA beads (Amersham, Arlington Heights, Ill.) in the binding buffer (50 mM HEPES, 1 mM CaCl2, 5 mM MgCl2, 125 mM NaCl, 0.002% NaN3, 1.0% BSA) at room temperature. The beads were spun down, washed once, resuspended in the binding buffer and transferred to a 96-well Isoplate (Wallac, Gaithersburg, Md.). 25 pM of [^125I] IP-10 with tested compounds in a series of titration were added to start the reaction. After 3 hr reaction at room temperature, the amount of [^125I] IP-10 bound to the SPA beads was determined with a Wallac 1450 Microbeta counter.
The Ki ratings for the various compounds of the present invention are given in the afore-mentioned Table 1. From these ratings and value ranges, it would be apparent to the skilled artisan that the compounds of the invention have excellent utility as CXCR3 receptor antagonists.

SMILES	pIC50
CC[C@H]1CN(c2nc(N)c(C(N)=O)nc2Cl)CCN1C1CCN(Cc2ccc(Cl)cc2[C@@H](O)C(=O)NC)CC1 [compound 44]	< 7.00
CC[C@H]1CN(c2nc(N)c(C(N)=O)nc2Cl)CCN1C1CCN([C@@H](C(=O)NC2CC2)c2ccc(Cl)cc2)CC1 [compound 45]	< 7.00
CC[C@H]1CN(c2nc(N)c(C(N)=O)nc2Cl)CCN1C1CCN(Cc2ccc(Cl)cc2CC(=O)NCCNS(C)(=O)=O)CC1 [compound 46]	< 7.00
CCNC(=O)NCCc1cc(Cl)ccc1CN1CCC(N2CCN(c3nc(N)c(C(N)=O)nc3Cl)C[C@@H]2CC)CC1 [compound 47]	< 7.00
CC[C@H]1CN(c2nc(N)c(C(N)=O)nc2Cl)CCN1C1CCN(Cc2ccc(Cl)cc2CC(=O)N2CC[C@H](O)C2)CC1 [compound 48]	< 7.00
CC[C@H]1CN(c2nc(N)c(C(N)=O)nc2Cl)CCN1C1CCN([C@H](CO)c2ccc(Cl)cc2)CC1 [compound 49]	< 7.00
CC[C@H]1CN(c2nc(N)c(C(N)=O)nc2Cl)CCN1C1CCN([C@@H](C(=O)NC)c2ccc(Cl)cc2)CC1 [compound 50]	< 7.00
CC[C@H]1CN(c2nc(N)c(C(N)=O)nc2Cl)CCN1C1CCN(Cc2ccc(Cl)cc2CC(=O)N2CC[C@@H](O)C2)CC1 [compound 51]	< 7.00
CC[C@H]1CN(c2nc(N)c(C(N)=O)nc2Cl)CCN1C1CCN(Cc2ccc(Cl)cc2CCn2ccnc2)CC1 [compound 52]	< 7.00
CCOC(=O)C1CCC(Oc2ccc(CN3CCC(N4CCN(c5nc(N)c(C(N)=O)nc5Cl)C[C@@H]4CC)CC3)cc2)CC1 (stereo partly shown) [compound 53]	< 7.00
CC[C@H]1CN(c2nc(N)c(C(N)=O)nc2Cl)CCN1C1CCN(Cc2ccc(-n3cncn3)cc2)CC1 [compound 54]	< 7.00
CC[C@H]1CN(c2nc(N)c(C(N)=O)nc2Cl)CCN1C1CCN(Cc2ccc(Cl)cc2CC(=O)N2CCOCC2)CC1 [compound 55]	< 7.00
CC[C@H]1CN(c2nc(N)c(C(N)=O)nc2Cl)CCN1C1CCN([C@@H](C(=O)OC)c2ccc(Cl)cc2)CC1 [compound 56]	< 7.00
CC[C@H]1CN(c2nc(N)c(C(N)=O)nc2Cl)CCN1C1CCN([C@@H](C(N)=O)c2ccc(Cl)cc2)CC1 [compound 57]	< 7.00
CC[C@H]1CN(c2nc(N)c(C(N)=O)nc2Cl)CCN1C1CCN(C(CNS(C)(=O)=O)c2ccc(Cl)cc2)CC1 (stereo partly shown) [compound 58]	< 7.00
CC[C@H]1CN(c2nc(N)c(C(N)=O)nc2Cl)CCN1C1CCN(Cc2ccc(C(=O)NC)cc2)CC1 [compound 59]	< 7.00
CC[C@H]1CN(c2nc(N)c(C(N)=O)nc2Cl)CCN1C1CCN(Cc2ccc(F)c(F)c2N2CCC[C@H]2C(C)(C)O)CC1 [compound 60]	< 7.00
CC[C@H]1CN(c2nc(N)c(C(=O)NC)nc2Cl)CCN1C1CCN(Cc2ccc(Cl)cc2)CC1 [compound 61]	> 7.60
CC[C@H]1CN(c2nc(N)c(C(=O)NC)nc2Cl)CCN1C1CCN([C@@H](CO)c2ccc(Cl)cc2)CC1 [compound 62]	> 7.60
CC[C@H]1CN(c2nc(N)c(C(=O)NC)nc2Cl)CCN1C1CCN(C(CO)c2ccc(Cl)cc2)CC1 (stereo partly shown) [compound 63]	> 7.60
CC[C@H]1CN(c2nc(N)c(C(=O)NC)nc2Cl)CCN1C1CCN(Cc2ccc(C#N)cc2)CC1 [compound 64]	> 7.60
CNC(=O)c1nc(Cl)c(N2CCN(C3CCN(Cc4ccc(Cl)cc4)CC3)[C@@H](C)C2)nc1N [compound 65]	> 7.60
CC[C@H]1CN(c2nc(N)c(C(=O)NC)nc2Cl)CCN1C1CCN(Cc2ccc(-n3cccn3)cc2)CC1 [compound 66]	> 7.60
CC[C@H]1CN(c2nc(N)c(C(=O)OC)nc2Cl)CCN1C1CCN(Cc2ccc(Cl)cc2)CC1 [compound 67]	> 7.60
CNC(=O)c1nc(Cl)c(N2C[C@H](C)N(C3CCN(Cc4ccc(Cl)cc4F)CC3)C[C@H]2C)nc1N [compound 68]	> 7.60

SMILES	pIC50
CC[C@H]1CN(c2nc(N)c(C(=O)NC)nc2Cl)CCN1C1CCN([C@@H](C(=O)OC)c2ccc(Cl)cc2)CC1 [compound 69]	> 7.60
CC[C@H]1CN(c2nc(N)c(C(=O)NC)nc2Cl)CCN1C1CCN([C@@H](C(=O)O)c2ccc(Cl)cc2)CC1 [compound 70]	> 7.60
CC[C@H]1CN(c2nc(N)c(C(=O)NC)nc2Cl)CCN1C1CCN([C@@H](C(=O)NC)c2ccc(Cl)cc2)CC1 [compound 71]	7.00 to 7.60
CC[C@H]1CN(c2nc(N)c(C(=O)NC)nc2Cl)CCN1C1CCN(CCCCc2ccc(Cl)cc2)CC1 [compound 72]	7.00 to 7.60
CC[C@H]1CN(c2nc(N)c(C(=O)NC)nc2Cl)CCN1C1CCN(CCCC(=O)c2ccc(Cl)cc2)CC1 [compound 73]	7.00 to 7.60
CC[C@H]1CN(c2nc(N)c(C(=O)NC)nc2Cl)CCN1C1CCN([C@H](CO)c2ccc(Cl)cc2)CC1 [compound 74]	7.00 to 7.60
CC[C@H]1CN(c2nc(N)c(C(=O)NC)nc2Cl)CCN1C1CCN(Cc2ccc(-n3cncn3)cc2)CC1 [compound 75]	7.00 to 7.60
CC[C@H]1CN(c2nc(N)c(C(=O)NC)nc2Cl)CCN1C1CCN([C@@H](C(N)=O)c2ccc(Cl)cc2)CC1 [compound 76]	< 7.00
CC[C@H]1CN(c2nc(N)c(C(=O)NC)nc2Cl)CCN1C1CCN([C@H](C(=O)OC)c2ccc(Cl)cc2)CC1 [compound 77]	< 7.00
CC[C@H]1CN(c2nc(N)c(C(=O)NC)nc2Cl)CCN1C1CCN(CCCOc2ccc(F)cc2)CC1 [compound 78]	< 7.00
CC[C@H]1CN(c2nc(N)c(C(=O)NC)nc2Cl)CCN1C1CCN(CCCNC(=O)c2ccc(Cl)cc2)CC1 [compound 79]	< 7.00
CC[C@H]1CN(c2nc(N)c(C(=O)NC)nc2Cl)CCN1C1(C)CCN(Cc2ccc(Cl)cc2)CC1 [compound 80]	< 7.00
CC[C@H]1CN(c2nc(N)c(C(=O)NC)nc2Cl)CCN1C1(C)CCN(Cc2ccc(Cl)cc2C(=O)NC)CC1 [compound 81]	< 7.00
CC[C@H]1CN(c2nc(N)c(C(=O)NC3CC3)nc2Cl)CCN1C1CCN(Cc2ccc(Cl)cc2C(N)=O)CC1 [compound 82]	> 7.60
CC[C@H]1CN(c2nc(N)c(C(=O)NC3CC3)nc2Cl)CCN1C1CCN(Cc2ccc(Cl)cc2F)CC1 [compound 83]	> 7.60
CC[C@H]1CN(c2nc(N)c(C(=O)NC3CC3)nc2Cl)CCN1C1CCN(Cc2ccc(Cl)cc2O)CC1 [compound 84]	> 7.60
CC[C@H]1CN(c2nc(N)c(C(=O)NC3CC3)nc2Cl)CCN1C1CCN(Cc2ccc(Cl)cc2OCCO)CC1 [compound 85]	> 7.60
CC[C@H]1CN(c2nc(N)c(C(=O)NC3CC3)nc2Cl)CCN1C1CCN(Cc2ccc(C#N)cc2OCCO)CC1 [compound 86]	> 7.60
CC[C@H]1CN(c2nc(N)c(C(=O)NC3CC3)nc2Cl)CCN1C1CCN(Cc2ccc(Cl)cc2CN)CC1 [compound 87]	> 7.60
CC[C@H]1CN(c2nc(N)c(C(=O)NC3CC3)nc2Cl)CCN1C1CCN(Cc2ccc(Cl)cc2C#N)CC1 [compound 88]	> 7.60
CC[C@H]1CN(c2nc(N)c(C(=O)NC3CC3)nc2Cl)CCN1C1CCN(Cc2ccc(C#N)cc2OCCOC)CC1 [compound 89]	> 7.60
CC[C@H]1CN(c2nc(N)c(C(=O)NC3CC3)nc2Cl)CCN1C1CCN(Cc2ccc(Cl)cc2C(=O)OC)CC1 [compound 90]	> 7.60
CCC1CN(c2nc(N)c(C(=O)NC3CC3)nc2Cl)CCN1C1CCN(C(CCN)c2ccc(Cl)cc2)CC1 (stereo not shown) [compound 91]	> 7.60
CC[C@H]1CN(c2nc(N)c(C(=O)NC3CC3)nc2Cl)CCN1C1CCN(Cc2ccc(C#N)cc2OCC(=O)NC2CC2)CC1 [compound 92]	> 7.60
